Test system: MV-4-11 cells
Assay: Gene expression microarray analysis (Affymetrix PrimeView) and GSEA
Format: cell-based, human
Parameters: RFU PODN (11730768_x_at) / Fold change /veh PODN (11730768_x_at) / RFU LINC00158 (11744669_a_at) / Fold change /veh LINC00158 (11744669_a_at) / RFU DUSP10 (11751237_a_at) / Fold change /veh DUSP10 (11751237_a_at) / RFU ID3 (11757404_x_at) / Fold change /veh ID3 (11757404_x_at) / RFU PLEKHG5 (11737974_s_at) / Fold change /veh PLEKHG5 (11737974_s_at) / RFU LRRC4B (11730491_at) / Fold change /veh LRRC4B (11730491_at) / RFU GIMAP4 (11747438_a_at) / Fold change /veh GIMAP4 (11747438_a_at) / RFU KRT8 (11758183_x_at) / Fold change /veh KRT8 (11758183_x_at) / RFU CNN1 (11734310_a_at) / Fold change /veh CNN1 (11734310_a_at) / RFU VPS37D (11726825_at) / Fold change /veh VPS37D (11726825_at) / RFU C10orf10 (11716522_x_at) / Fold change /veh C10orf10 (11716522_x_at) / RFU KIR2DL2 /// KIR2DL4 /// KIR2DL5A /// KIR2DL5B /// KIR2DS1 /// KIR2DS2 /// KIR2DS3 /// KIR2DS4 /// KIR3DL3 /// KIR3DL3 /// KIR3DS1 (11738374_at) / Fold change /veh KIR2DL2 /// KIR2DL4 /// KIR2DL5A /// KIR2DL5B /// KIR2DS1 /// KIR2DS2 /// KIR2DS3 /// KIR2DS4 /// KIR3DL3 /// KIR3DL3 /// KIR3DS1 (11738374_at) / RFU C1QL1 (11718748_at) / Fold change /veh C1QL1 (11718748_at) / RFU TMPRSS4 (11747572_a_at) / Fold change /veh TMPRSS4 (11747572_a_at) / RFU HAMP (11756126_x_at) / Fold change /veh HAMP (11756126_x_at) / RFU RNFT2 (11725882_a_at) / Fold change /veh RNFT2 (11725882_a_at) / RFU NR4A2 (11747474_a_at) / Fold change /veh NR4A2 (11747474_a_at) / RFU ABCC12 (11746883_a_at) / Fold change /veh ABCC12 (11746883_a_at) / RFU TMEM136 (11760407_x_at) / Fold change /veh TMEM136 (11760407_x_at) / RFU CLDN22 /// WWC2 (11732394_at) / Fold change /veh CLDN22 /// WWC2 (11732394_at) / RFU HLA-DPB1 (11760878_x_at) / Fold change /veh HLA-DPB1 (11760878_x_at) / RFU SPINT1 (11716480_a_at) / Fold change /veh SPINT1 (11716480_a_at) / RFU GAP43 (11754022_s_at) / Fold change /veh GAP43 (11754022_s_at) / RFU A4GNT (11735810_at) / Fold change /veh A4GNT (11735810_at) / RFU PRB3 (11715151_x_at) / Fold change /veh PRB3 (11715151_x_at) / RFU TUBB4B (11761932_at) / Fold change /veh TUBB4B (11761932_at) / RFU CAPN14 (11732068_a_at) / Fold change /veh CAPN14 (11732068_a_at) / RFU TMCC2 (11721928_a_at) / Fold change /veh TMCC2 (11721928_a_at) / RFU IRGQ (11745062_a_at) / Fold change /veh IRGQ (11745062_a_at) / RFU FAM174B (11720279_a_at) / Fold change /veh FAM174B (11720279_a_at) / RFU TMPRSS4 (11748680_a_at) / Fold change /veh TMPRSS4 (11748680_a_at) / RFU FAM212B (11763350_a_at) / Fold change /veh FAM212B (11763350_a_at) / RFU PLEKHG5 (11743358_a_at) / Fold change /veh PLEKHG5 (11743358_a_at) / RFU ZSCAN30 (11745921_a_at) / Fold change /veh ZSCAN30 (11745921_a_at) / RFU CMKLR1 (11741424_a_at) / Fold change /veh CMKLR1 (11741424_a_at) / RFU LOC101060620 /// MAPK8IP1 (11723275_at) / Fold change /veh LOC101060620 /// MAPK8IP1 (11723275_at) / RFU SPTSSB (11747773_x_at) / Fold change /veh SPTSSB (11747773_x_at) / RFU PRSS12 (11739890_at) / Fold change /veh PRSS12 (11739890_at) / RFU BIN1 (11741810_x_at) / Fold change /veh BIN1 (11741810_x_at) / RFU WNT11 (11732464_a_at) / Fold change /veh WNT11 (11732464_a_at) / RFU C10orf10 (11716521_a_at) / Fold change /veh C10orf10 (11716521_a_at) / RFU C5orf56 (11738089_at) / Fold change /veh C5orf56 (11738089_at) / RFU CYB561 (11721691_x_at) / Fold change /veh CYB561 (11721691_x_at) / RFU ANKRD19P (11752326_a_at) / Fold change /veh ANKRD19P (11752326_a_at) / RFU OR2T12 /// OR2T33 /// OR2T8 (11738714_s_at) / Fold change /veh OR2T12 /// OR2T33 /// OR2T8 (11738714_s_at) / RFU VCAN (11748164_a_at) / Fold change /veh VCAN (11748164_a_at) / RFU JSRP1 (11732532_at) / Fold change /veh JSRP1 (11732532_at) / RFU KRTAP10-11 (11738290_x_at) / Fold change /veh KRTAP10-11 (11738290_x_at) / RFU MYO3A (11730013_a_at) / Fold change /veh MYO3A (11730013_a_at) / RFU EBF3 (11725865_a_at) / Fold change /veh EBF3 (11725865_a_at) / RFU CAMK2N1 (11719241_x_at) / Fold change /veh CAMK2N1 (11719241_x_at) / RFU C5orf56 (11738088_a_at) / Fold change /veh C5orf56 (11738088_a_at) / RFU OLFML3 (11715873_a_at) / Fold change /veh OLFML3 (11715873_a_at) / RFU LOC100653217 /// NTM (11731650_a_at) / Fold change /veh LOC100653217 /// NTM (11731650_a_at) / RFU MAPK11 (11762145_a_at) / Fold change /veh MAPK11 (11762145_a_at) / RFU FIZ1 (11724087_x_at) / Fold change /veh FIZ1 (11724087_x_at) / RFU OASL (11726364_x_at) / Fold change /veh OASL (11726364_x_at) / RFU SOX15 (11748057_x_at) / Fold change /veh SOX15 (11748057_x_at) / RFU CD79A (11719716_a_at) / Fold change /veh CD79A (11719716_a_at) / RFU HIST1H1D (11736915_at) / Fold change /veh HIST1H1D (11736915_at) / RFU CASKIN2 (11723855_a_at) / Fold change /veh CASKIN2 (11723855_a_at) / RFU LOC730098 (11760151_x_at) / Fold change /veh LOC730098 (11760151_x_at) / RFU OR4N2 (11742367_at) / Fold change /veh OR4N2 (11742367_at) / RFU PRRT2 (11749266_a_at) / Fold change /veh PRRT2 (11749266_a_at) / RFU SNX32 (11753110_a_at) / Fold change /veh SNX32 (11753110_a_at) / RFU CDHR5 (11726645_a_at) / Fold change /veh CDHR5 (11726645_a_at) / RFU RCAN1 (11760418_a_at) / Fold change /veh RCAN1 (11760418_a_at) / RFU FAM167A (11723789_a_at) / Fold change /veh FAM167A (11723789_a_at) / RFU FAM26E (11764081_at) / Fold change /veh FAM26E (11764081_at) / RFU ISYNA1 (11749810_s_at) / Fold change /veh ISYNA1 (11749810_s_at) / RFU ACY1 (11761880_at) / Fold change /veh ACY1 (11761880_at) / RFU 11764098_at / Fold change /veh 11764098_at / RFU SAMD14 (11745864_x_at) / Fold change /veh SAMD14 (11745864_x_at) / RFU NPB (11741838_a_at) / Fold change /veh NPB (11741838_a_at) / RFU TMPRSS6 (11731388_a_at) / Fold change /veh TMPRSS6 (11731388_a_at) / RFU KRTAP10-2 (11738614_at) / Fold change /veh KRTAP10-2 (11738614_at) / RFU ARHGAP8 /// PRR5-ARHGAP8 (11727945_x_at) / Fold change /veh ARHGAP8 /// PRR5-ARHGAP8 (11727945_x_at) / RFU KRTAP5-7 /// NADSYN1 (11734609_at) / Fold change /veh KRTAP5-7 /// NADSYN1 (11734609_at) / RFU RASL12 (11751679_a_at) / Fold change /veh RASL12 (11751679_a_at) / RFU CDKN2B (11736163_a_at) / Fold change /veh CDKN2B (11736163_a_at) / RFU PRF1 (11729649_at) / Fold change /veh PRF1 (11729649_at) / RFU, ZNF638 /// ZNF638-IT1 / Fold change vs veh, ZNF638 /// ZNF638-IT1 / RFU, PANK3 / Fold change vs veh, PANK3 / RFU, SH3YL1 / Fold change vs veh, SH3YL1 / RFU, ZEB2 / Fold change vs veh, ZEB2 / RFU, NRIP1 / Fold change vs veh, NRIP1 / RFU, PTTG1IP / Fold change vs veh, PTTG1IP / RFU, CAPN2 / Fold change vs veh, CAPN2 / RFU, MED14 / Fold change vs veh, MED14 / RFU, SNORA58 / Fold change vs veh, SNORA58 / RFU, C1orf63 / Fold change vs veh, C1orf63 / RFU, LRRFIP1 / Fold change vs veh, LRRFIP1 / RFU, NDUFAF7 / Fold change vs veh, NDUFAF7 / RFU, SLC12A2 / Fold change vs veh, SLC12A2 / RFU, IBTK / Fold change vs veh, IBTK / RFU, ESF1 / Fold change vs veh, ESF1 / Fold change vs veh, TMEM50B / RFU, TAOK1 / Fold change vs veh, TAOK1 / RFU, ACBD3 / Fold change vs veh, ACBD3 / RFU, TMA16 / Fold change vs veh, TMA16 / RFU, RWDD3 / Fold change vs veh, RWDD3 / RFU, BCAT1 / Fold change vs veh, BCAT1 / RFU, EDEM3 / Fold change vs veh, EDEM3 / RFU, TMEM33 / Fold change vs veh, TMEM33 / RFU, WDR75 / Fold change vs veh, WDR75 / RFU, AHCTF1 / Fold change vs veh, AHCTF1 / RFU, TFRC / Fold change vs veh, TFRC / RFU, ZDHHC17 / Fold change vs veh, ZDHHC17 / RFU, NOM1 / Fold change vs veh, NOM1 / RFU, ARL8B / Fold change vs veh, ARL8B / RFU, ZBTB11 / Fold change vs veh, ZBTB11 / RFU, TAMM41 / Fold change vs veh, TAMM41 / RFU, KIAA1704 /// LOC100996395 / Fold change vs veh, KIAA1704 /// LOC100996395 / RFU, ING1 / Fold change vs veh, ING1 / RFU, TRMT61B / Fold change vs veh, TRMT61B / RFU, FUBP3 / Fold change vs veh, FUBP3 / RFU, TP53 / Fold change vs veh, TP53 / RFU, TNKS2 / Fold change vs veh, TNKS2 / RFU, ZFP14 / Fold change vs veh, ZFP14 / RFU, ACTR2 / Fold change vs veh, ACTR2 / RFU, PPP3R1 / Fold change vs veh, PPP3R1 / RFU, PIK3R1 / Fold change vs veh, PIK3R1 / RFU, HNRNPA1 / Fold change vs veh, HNRNPA1 / RFU, RNF170 / Fold change vs veh, RNF170 / RFU, ZNF28 / Fold change vs veh, ZNF28 / RFU, RNGTT / Fold change vs veh, RNGTT / RFU, OGT / Fold change vs veh, OGT / RFU, BRD1 / Fold change vs veh, BRD1 / RFU, MARS / Fold change vs veh, MARS / RFU, ZNF655 / Fold change vs veh, ZNF655 / RFU, FAHD1 / Fold change vs veh, FAHD1 / RFU, BDP1 / Fold change vs veh, BDP1 / RFU, LRRCC1 / Fold change vs veh, LRRCC1 / RFU, ARID1A / Fold change vs veh, ARID1A / RFU, ZNF146 / Fold change vs veh, ZNF146 / RFU, ZNF330 / Fold change vs veh, ZNF330 / RFU, GPN3 / Fold change vs veh, GPN3 / RFU, C9orf123 / Fold change vs veh, C9orf123 / RFU, N4BP2L2 / Fold change vs veh, N4BP2L2 / RFU, ARFIP1 / Fold change vs veh, ARFIP1 / RFU, FAM179B / Fold change vs veh, FAM179B / RFU, BCL10 / Fold change vs veh, BCL10 / RFU, UHRF1BP1L / Fold change vs veh, UHRF1BP1L / RFU, BET1 / Fold change vs veh, BET1 / RFU, CNOT2 / Fold change vs veh, CNOT2 / RFU, ZNF268 / Fold change vs veh, ZNF268 / Fold change vs veh, ZNF507 / RFU, DGCR2 / Fold change vs veh, DGCR2 / RFU, WDSUB1 / Fold change vs veh, WDSUB1 / Fold change vs veh, HSP90B1 /// MIR3652 / RFU, ADSS / Fold change vs veh, ADSS / RFU, GK / Fold change vs veh, GK / RFU, ZNF148 / Fold change vs veh, ZNF148 / RFU, TAF9 / Fold change vs veh, TAF9 / RFU, SLC1A5 / Fold change vs veh, SLC1A5 / RFU, SLMO2 / Fold change vs veh, SLMO2 / RFU, ABCC4 / Fold change vs veh, ABCC4 / RFU, LOC101060439 /// RAP1B / Fold change vs veh, LOC101060439 /// RAP1B / RFU, RFX7 / Fold change vs veh, RFX7 / RFU, GTPBP10 / Fold change vs veh, GTPBP10 / RFU, CNEP1R1 / Fold change vs veh, CNEP1R1 / RFU, BIVM-ERCC5 /// ERCC5 / Fold change vs veh, BIVM-ERCC5 /// ERCC5 / RFU, ILF3 / Fold change vs veh, ILF3 / RFU 11762660_at / Fold change /veh 11762660_at / RFU VCAN (11757783_s_at) / Fold change /veh VCAN (11757783_s_at) / RFU DDX43 (11728927_at) / Fold change /veh DDX43 (11728927_at) / RFU KRT8 (11758188_x_at) / Fold change /veh KRT8 (11758188_x_at) / RFU NKD1 (11759106_at) / Fold change /veh NKD1 (11759106_at) / RFU SRD5A1 (11742802_a_at) / Fold change /veh SRD5A1 (11742802_a_at) / RFU TPSAB1 /// TPSB2 (11721975_s_at) / Fold change /veh TPSAB1 /// TPSB2 (11721975_s_at) / RFU GSTM3 (11746129_a_at) / Fold change /veh GSTM3 (11746129_a_at) / RFU IL23R (11737362_x_at) / Fold change /veh IL23R (11737362_x_at) / RFU TMEM51 (11727254_a_at) / Fold change /veh TMEM51 (11727254_a_at) / RFU PIWIL2 (11732686_x_at) / Fold change /veh PIWIL2 (11732686_x_at) / RFU ORM1 (11744905_x_at) / Fold change /veh ORM1 (11744905_x_at) / RFU CCDC152 (11743942_at) / Fold change /veh CCDC152 (11743942_at) / RFU ECM1 (11717891_a_at) / Fold change /veh ECM1 (11717891_a_at) / RFU IL23R (11748794_a_at) / Fold change /veh IL23R (11748794_a_at) / RFU TNFAIP8L3 (11732012_x_at) / Fold change /veh TNFAIP8L3 (11732012_x_at) / RFU MBOAT4 (11741988_at) / Fold change /veh MBOAT4 (11741988_at) / RFU 11764193_at / Fold change /veh 11764193_at / RFU TMEM53 (11763286_at) / Fold change /veh TMEM53 (11763286_at) / RFU MAGEB2 (11727129_at) / Fold change /veh MAGEB2 (11727129_at) / RFU TMEM200A (11744735_a_at) / Fold change /veh TMEM200A (11744735_a_at) / RFU CCDC152 (11751479_a_at) / Fold change /veh CCDC152 (11751479_a_at) / RFU FAM211A (11726209_a_at) / Fold change /veh FAM211A (11726209_a_at) / RFU RGS16 (11746705_a_at) / Fold change /veh RGS16 (11746705_a_at) / RFU VCAN (11755009_s_at) / Fold change /veh VCAN (11755009_s_at) / RFU RHOB (11743442_s_at) / Fold change /veh RHOB (11743442_s_at) / RFU RGS16 (11720943_a_at) / Fold change /veh RGS16 (11720943_a_at) / RFU RGS16 (11720944_at) / Fold change /veh RGS16 (11720944_at) / RFU, VPS4B / Fold change vs veh, VPS4B / RFU, CREB1 / Fold change vs veh, CREB1 / RFU, DNAJC13 / Fold change vs veh, DNAJC13 / RFU, GNAQ / Fold change vs veh, GNAQ / RFU, CDK5R1 / Fold change vs veh, CDK5R1 / RFU, ZRANB3 / Fold change vs veh, ZRANB3 / RFU, CUL4A / Fold change vs veh, CUL4A / RFU, CCNY / Fold change vs veh, CCNY / RFU, UFL1 / Fold change vs veh, UFL1 / RFU, COG3 / Fold change vs veh, COG3 / RFU, DIAPH2 / Fold change vs veh, DIAPH2 / RFU, SKA2 / Fold change vs veh, SKA2 / RFU, AFF3 / Fold change vs veh, AFF3 / RFU, LMF1 / Fold change vs veh, LMF1 / RFU, IPO11 / Fold change vs veh, IPO11 / RFU, DFFB / Fold change vs veh, DFFB / RFU, FOXP1 / Fold change vs veh, FOXP1 / RFU, CARD8 / Fold change vs veh, CARD8 / RFU, STRN3 / Fold change vs veh, STRN3 / RFU, ADK / Fold change vs veh, ADK / RFU, RASSF2 / Fold change vs veh, RASSF2 / RFU, WIPF1 / Fold change vs veh, WIPF1 / RFU, LARP1B / Fold change vs veh, LARP1B / RFU, RASA1 / Fold change vs veh, RASA1 / RFU, RB1 / Fold change vs veh, RB1 / RFU, PPFIA1 / Fold change vs veh, PPFIA1 / RFU, MAT2A / Fold change vs veh, MAT2A / RFU, CCT5 / Fold change vs veh, CCT5 / RFU, WDR92 / Fold change vs veh, WDR92 / RFU, CUX1 / Fold change vs veh, CUX1 / RFU, TTC7A / Fold change vs veh, TTC7A / RFU, TMEM135 / Fold change vs veh, TMEM135 / RFU, DEPTOR / Fold change vs veh, DEPTOR / RFU, CPM / Fold change vs veh, CPM / RFU, DNAJB6 / Fold change vs veh, DNAJB6 / RFU, CACNA2D3 / Fold change vs veh, CACNA2D3 / RFU, DTX4 / Fold change vs veh, DTX4 / RFU, TFCP2 / Fold change vs veh, TFCP2 / RFU, GMCL1 /// GMCL1P1 / Fold change vs veh, GMCL1 /// GMCL1P1 / RFU, AEBP2 / Fold change vs veh, AEBP2 / RFU, SNHG1 /// SNORD22 /// SNORD25 /// SNORD26 /// SNORD27 /// SNORD28 /// SNORD29 /// SNORD31 / Fold change vs veh, SNHG1 /// SNORD22 /// SNORD25 /// SNORD26 /// SNORD27 /// SNORD28 /// SNORD29 /// SNORD31 / Fold change (Aza/veh), C12orf56 (ProbeSet 11735607_a_at) / Fold change (ACY-1035/veh), C12orf56 (ProbeSet 11735607_a_at) / Fold change (Aza/veh), FGFR1OP (ProbeSet 11751329_s_at) / Fold change (ACY-1035/veh), FGFR1OP (ProbeSet 11751329_s_at) / Fold change (Aza/veh), VPS36 (ProbeSet 11739960_a_at) / Fold change (ACY-1035/veh), VPS36 (ProbeSet 11739960_a_at) / RFU SYPL1 (11715823_x_at) / Fold change /veh SYPL1 (11715823_x_at) / RFU IGFBP7 (11715501_s_at) / Fold change /veh IGFBP7 (11715501_s_at) / RFU REEP3 (11722064_at) / Fold change /veh REEP3 (11722064_at) / RFU IGLL1 (11728026_x_at) / Fold change /veh IGLL1 (11728026_x_at): dose or concentration left out as unconfirmed
Settings: MV-4-11 cells, 48 hours

## Nc1ccc(-c2cccs2)cc1NC(=O)c1ccc2c(c1)cc(C1CC1)n2CCN1CCOCC1 [ACY-1035]
  Fold change /veh ID3 (11757404_x_at): 1.00

Source: publication PMC5218480 (PLoS ONE, 2017)
